According to ChEMBL document CHEMBL1137065, “Identification of peptidomimetic HTLV-I protease inhibitors containing hydroxymethylcarbonyl (HMC) isostere as the transition-state mimic” (Bioorg Med Chem Lett, 2004):
Starred links: 1 amine or outer side, 2 acyl side, 3 side chain; linkers in the order of their positions; H or OH if unused. Non-standard residues stand in square brackets, D forms with d. Residues, ends and D or L forms follow the SMILES beside them. X1 = O=C(C(O)[C@H](Cc1ccccc1)N[*:1])[*:2]; X2 = CC(C)C[C@H](N[*:1])C(O)C(=O)[*:2]; Thz(5,5-Me2) = CC1(C)SCN[C@@H]1C(=O)O

Key:
[1] = target: T1, Gag-Pro polyprotein (Human T-cell leukemia virus 1 (strain Japan ATK-1 subtype A) (HTLV-1)) (UniProt P10274); assay: Percent inhibition of synthesized human T-cell leukemia virus type I (HTLV-1) protease was determined at 100 uM concentration; settings: human T-cell leukemia virus type 1
T1 sequence (whole entry): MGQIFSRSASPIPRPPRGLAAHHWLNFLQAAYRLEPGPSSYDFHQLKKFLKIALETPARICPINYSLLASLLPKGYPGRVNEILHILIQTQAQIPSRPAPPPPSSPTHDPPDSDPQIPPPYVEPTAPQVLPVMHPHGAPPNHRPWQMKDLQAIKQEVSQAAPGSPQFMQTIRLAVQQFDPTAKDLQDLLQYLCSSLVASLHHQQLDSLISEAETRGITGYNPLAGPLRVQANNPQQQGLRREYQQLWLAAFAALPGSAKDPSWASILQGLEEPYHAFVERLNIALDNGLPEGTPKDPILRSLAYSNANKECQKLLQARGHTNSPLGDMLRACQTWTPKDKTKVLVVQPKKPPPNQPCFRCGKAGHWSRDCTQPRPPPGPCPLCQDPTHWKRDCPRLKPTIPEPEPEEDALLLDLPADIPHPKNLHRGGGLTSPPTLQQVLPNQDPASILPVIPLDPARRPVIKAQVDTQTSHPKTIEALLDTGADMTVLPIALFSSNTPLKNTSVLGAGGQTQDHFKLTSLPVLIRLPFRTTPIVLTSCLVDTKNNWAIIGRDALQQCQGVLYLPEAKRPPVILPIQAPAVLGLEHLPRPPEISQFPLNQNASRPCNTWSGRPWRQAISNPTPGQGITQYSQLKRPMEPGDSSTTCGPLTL

[2] = target: T1, Gag-Pro polyprotein (Human T-cell leukemia virus 1 (strain Japan ATK-1 subtype A) (HTLV-1)); assay: Percent inhibition of recombinant human T-cell leukemia virus type I (HTLV-1) protease was determined at 100 uM concentration; settings: human T-cell leukemia virus type 1
[3] = target: Human immunodeficiency virus type 1 protease (Human immunodeficiency virus 1) (UniProt Q72874); assay: Percent inhibition of human immunodeficiency virus type I (HIV-1) protease was determined at 50 uM concentration
[4] = target: T1, Gag-Pro polyprotein (Human T-cell leukemia virus 1 (strain Japan ATK-1 subtype A) (HTLV-1)); assay: Percent inhibition of recombinant human T-cell leukemia virus type I (HTLV-1) protease was determined at 50 uM concentration; settings: Human T-cell lymphotrophic virus type 1 (strain ATK)
[5] = target: T1, Gag-Pro polyprotein (Human T-cell leukemia virus 1 (strain Japan ATK-1 subtype A) (HTLV-1)); assay: Percent inhibition of synthesized human T-cell leukemia virus type I (HTLV-1) protease was determined at 50 uM concentration; settings: Human T-cell lymphotrophic virus type 1 (strain ATK)
Gag-Pro polyprotein [6] = target: T2, Gag-Pro polyprotein (Human T-cell leukemia virus 1 (strain Japan ATK-1 subtype A) (HTLV-1), UniProt P10274); assay: Inhibitory binding affinity towards recombinant human T-cell leukemia virus type I (HTLV-1) protease; design: species or system human T-cell leukemia virus type 1
T2 sequence (P10274 whole entry): T1 sequence (whole entry)

Gag-Pro polyprotein [7] = target: T2, Gag-Pro polyprotein; assay: Inhibitory binding affinity towards synthesized human T-cell leukemia virus type I (HTLV-1) protease; design: species or system human T-cell leukemia virus type 1

SMILES: CC(C)c1nc(CN(C)C(=O)N[C@H](C(=O)N[C@@H](Cc2ccccc2)C[C@H](O)[C@H](Cc2ccccc2)NC(=O)OCc2cncs2)C(C)C)cs1
- inhibition [1]: 20%
- inhibition [2]: 20%
- inhibition [3]: 100%

SMILES: Cc1c(O)cccc1C(=O)NC(Cc1ccccc1)C(O)C(=O)N1CSC(C)(C)C1C(=O)NC(C)(C)C (stereo not drawn)
- inhibition [1]: 57%
- inhibition [2]: 38%
- inhibition [3]: 88%

SMILES: Cc1cccc(C)c1OCC(=O)NC(Cc1ccccc1)C(O)C(=O)N1CSC(C)(C)C1C(=O)NC(C)(C)C (stereo not drawn)
- inhibition [1]: 32%
- inhibition [2]: 43%
- inhibition [3]: 96%

SMILES: Cc1ccccc1CNC(=O)C1N(C(=O)C(O)C(Cc2ccccc2)NC(=O)COc2c(C)cccc2C)CSC1(C)C (stereo not drawn)
- inhibition [1]: 11%
- inhibition [2]: 19%
- inhibition [3]: 98%

SMILES: Cc1ccccc1CNC(=O)C1N(C(=O)C(O)C(Cc2ccccc2)NC(=O)c2cccc(O)c2C)CSC1(C)C (stereo not drawn)
- inhibition [1]: 79%
- inhibition [2]: 31%
- inhibition [3]: 96%

SMILES: CSCC[C@H](NC(=O)[C@@H](NC(=O)[C@@H]1CCCN1C(=O)C(O)[C@H](Cc1ccccc1)NC(=O)[C@@H](NC(=O)[C@H](CCC(N)=O)NC(=O)[C@@H]1CCCN1)C(C)C)C(C)C)C(=O)N[C@@H](Cc1c[nH]cn1)C(=O)O (stereo partly drawn) (H-PQV[X1]PVMH-OH)
- inhibition [4]: 54%
- inhibition [2]: 94%
- inhibition [5]: 59%
- inhibition [3]: 6%

SMILES: CSCC[C@H](NC(=O)[C@@H](NC(=O)[C@H]1N(C(=O)C(O)[C@H](Cc2ccccc2)NC(=O)[C@@H](NC(=O)[C@H](CCC(N)=O)NC(=O)[C@@H]2CCCN2)C(C)C)CSC1(C)C)C(C)C)C(=O)N[C@@H](Cc1cnc[nH]1)C(=O)O (stereo partly drawn) (H-PQV[X1][Thz(5,5-Me2)]VMH-OH)
- Ki (Gag-Pro polyprotein [6]): 3.9 µM
- Ki (Gag-Pro polyprotein [7]): 2 µM

SMILES: CSCC[C@H](NC(=O)[C@@H](NC(=O)[C@H]1N(C(=O)C(O)[C@H](Cc2ccccc2)NC(=O)[C@@H](NC(=O)[C@H](CCC(N)=O)NC(=O)[C@@H]2CCCN2)C(C)C)CSC1(C)C)C(C)C)C(=O)N[C@@H](Cc1c[nH]cn1)C(=O)O (stereo partly drawn) (H-PQV[X1][Thz(5,5-Me2)]VMH-OH)
- inhibition [4]: 66%
- inhibition [2]: 100%
- inhibition [5]: 80%
- inhibition [3]: 58%

SMILES: CSCC[C@H](NC(=O)[C@@H](NC(=O)[C@@H]1CCCN1C(=O)C(O)[C@H](CC(C)C)NC(=O)[C@@H](NC(=O)[C@H](CCC(N)=O)NC(=O)[C@@H]1CCCN1)C(C)C)C(C)C)C(=O)N[C@@H](Cc1c[nH]cn1)C(=O)O (stereo partly drawn) (H-PQV[X2]PVMH-OH)
- inhibition [4]: 43%
- inhibition [2]: 93%
- inhibition [5]: 58%
- inhibition [3]: 3%

SMILES: CSCC[C@H](NC(=O)[C@@H](NC(=O)[C@H]1N(C(=O)C(O)[C@H](CC(C)C)NC(=O)[C@@H](NC(=O)[C@H](CCC(N)=O)NC(=O)[C@@H]2CCCN2)C(C)C)CSC1(C)C)C(C)C)C(=O)N[C@@H](Cc1c[nH]cn1)C(=O)O (stereo partly drawn) (H-PQV[X2][Thz(5,5-Me2)]VMH-OH)
- inhibition [4]: 63%
- inhibition [2]: 100%
- inhibition [5]: 76%
- inhibition [3]: 37%

SMILES: CC(C)CC(=O)N[C@H](C(=O)N[C@H](C(=O)N[C@@H](CC(C)C)[C@@H](O)CC(=O)N[C@@H](C)C(=O)N[C@@H](CC(C)C)[C@@H](O)CC(=O)O)C(C)C)C(C)C [PEPSTATIN]
- inhibition [4]: 17%
- inhibition [5]: 15%
- Ki (Gag-Pro polyprotein [6]): 14.6 µM
- inhibition [3]: 23%
- Ki (Gag-Pro polyprotein [7]): 36.5 µM
